The NIST ThermoML archive (doi:10.1016/j.jct.2018.02.014)
Numbers after ± are expanded uncertainties.

Test: activity coefficient (dimensionless); of the first substance listed, at infinite dilution; xn = mol fraction of the nth substance listed
Conditions: 101.33 kPa, Liquid, Chromatography, x1 = 0

Row | Structure (SMILES) | activity coefficient (328.15 K) | activity coefficient (338.15 K) | activity coefficient (348.15 K) | activity coefficient (358.15 K) | activity coefficient (368.15 K) | activity coefficient (318.15 K) | activity coefficient (298.15 K) | activity coefficient (308.15 K)
1 | CCOCC [diethyl ether] + CC[N+]1(C)CCOCC1.N#CN=C=[N-] | 28.5 ± 1.9 | 29.3 ± 2 | 30.1 ± 2.1 | 30.8 ± 2.1 | 31.6 ± 2.2 |  |  | 
2 | CC(C)OC(C)C [diisopropyl ether] + CC[N+]1(C)CCOCC1.N#CN=C=[N-] | 123 ± 8 | 125 ± 9 | 127 ± 9 | 128 ± 9 | 130 ± 9 |  |  | 
3 | CCCOCCC [dipropyl ether] + CC[N+]1(C)CCOCC1.N#CN=C=[N-] | 110 ± 8 | 112 ± 8 | 114 ± 8 | 116 ± 8 | 119 ± 8 |  |  | 
4 | CCCCCCC [heptane] + CC[N+]1(C)CCOCC1.N#CN=C=[N-] | 645 ± 44 | 574 ± 40 |  |  |  | 729 ± 50 | 953 ± 66 | 831 ± 57
5 | CO [methanol] + CC[N+]1(C)CCOCC1.N#CN=C=[N-] | 0.631 ± 0.044 | 0.645 ± 0.044 | 0.659 ± 0.045 | 0.672 ± 0.046 | 0.684 ± 0.046 | 0.617 ± 0.043 |  | 
6 | CCCC(=O)OC [methyl butanoate] + CC[N+]1(C)CCOCC1.N#CN=C=[N-] | 9.53 ± 0.65 | 9.79 ± 0.67 | 10 ± 0.7 | 10.3 ± 0.7 | 10.5 ± 0.7 | 9.27 ± 0.63 |  | 
7 | COC(C)=O [methyl ethanoate] + CC[N+]1(C)CCOCC1.N#CN=C=[N-] | 3.02 ± 0.21 | 3.18 ± 0.22 | 3.34 ± 0.23 | 3.5 ± 0.24 | 3.65 ± 0.25 | 2.86 ± 0.2 |  | 
8 | CC1CCCCC1 [methylcyclohexane] + CC[N+]1(C)CCOCC1.N#CN=C=[N-] | 263 ± 18 | 242 ± 17 | 224 ± 15 | 208 ± 14 | 194 ± 13 | 288 ± 20 |  | 
9 | CCCCCCCCC [nonane] + CC[N+]1(C)CCOCC1.N#CN=C=[N-] | 1350 ± 93 | 1190 ± 82 | 1050 ± 73 | 945 ± 65 | 850 ± 59 | 1540 ± 110 |  | 
10 | C=CCCCCCC [oct-1-ene] + CC[N+]1(C)CCOCC1.N#CN=C=[N-] | 445 ± 31 | 402 ± 28 | 364 ± 25 | 333 ± 23 | 307 ± 21 | 496 ± 34 |  | 
11 | CCCCCCCC [octane] + CC[N+]1(C)CCOCC1.N#CN=C=[N-] | 1010 ± 70 | 903 ± 62 | 814 ± 56 | 737 ± 51 | 672 ± 46 | 1130 ± 78 |  | 
12 | CC(C)O [propan-2-ol] + CC[N+]1(C)CCOCC1.N#CN=C=[N-] | 2 ± 0.14 | 1.99 ± 0.14 | 1.97 ± 0.13 | 1.96 ± 0.13 | 1.95 ± 0.13 | 2.02 ± 0.14 |  | 
13 | c1ccncc1 [pyridine] + CC[N+]1(C)CCOCC1.N#CN=C=[N-] | 1.81 ± 0.12 | 1.88 ± 0.13 | 1.96 ± 0.13 | 2.03 ± 0.14 | 2.1 ± 0.14 | 1.74 ± 0.12 |  | 
14 | C1CCOC1 [tetrahydrofuran] + CC[N+]1(C)CCOCC1.N#CN=C=[N-] | 3.44 ± 0.23 | 3.57 ± 0.24 | 3.7 ± 0.25 | 3.82 ± 0.26 | 3.95 ± 0.27 | 3.3 ± 0.22 |  | 
15 | Cc1ccccc1 [toluene] + CC[N+]1(C)CCOCC1.N#CN=C=[N-] | 8.1 ± 0.55 | 8.33 ± 0.57 | 8.56 ± 0.58 | 8.77 ± 0.6 | 8.99 ± 0.61 | 7.87 ± 0.54 |  | 
16 | C=COC(C)=O [vinyl acetate] + CC[N+]1(C)CCOCC1.N#CN=C=[N-] | 4.41 ± 0.3 | 4.6 ± 0.31 | 4.78 ± 0.33 | 4.97 ± 0.34 | 5.15 ± 0.35 | 4.22 ± 0.29 |  | 

Results, then the compound that gave them:

Row | activity coefficient (328.15 K) | activity coefficient (338.15 K) | activity coefficient (348.15 K) | activity coefficient (358.15 K) | activity coefficient (368.15 K) | activity coefficient (318.15 K) | activity coefficient (298.15 K) | activity coefficient (308.15 K) | Structure (SMILES)
17 | 1.2 ± 0.08 | 1.21 ± 0.08 | 1.21 ± 0.08 | 1.22 ± 0.08 | 1.22 ± 0.08 | 1.2 ± 0.08 |  |  | CCO [ethanol] + CC[N+]1(C)CCOCC1.N#CN=C=[N-]
18 | 5.93 ± 0.4 | 6.19 ± 0.42 | 6.45 ± 0.44 | 6.71 ± 0.46 | 6.96 ± 0.47 | 5.67 ± 0.39 |  |  | CCOC(C)=O [ethyl acetate] + CC[N+]1(C)CCOCC1.N#CN=C=[N-]
19 | 15.3 ± 1 | 15.5 ± 1.1 | 15.7 ± 1.1 | 15.8 ± 1.1 | 16 ± 1.1 | 15.1 ± 1 |  |  | CCc1ccccc1 [ethylbenzene] + CC[N+]1(C)CCOCC1.N#CN=C=[N-]
20 | 152 ± 10 | 141 ± 10 |  |  |  | 163 ± 11 | 193 ± 13 | 177 ± 12 | C=CCCCC [hex-1-ene] + CC[N+]1(C)CCOCC1.N#CN=C=[N-]
21 |  |  |  |  |  | 482 ± 33 | 608 ± 42 | 539 ± 37 | CCCCCC [hexane] + CC[N+]1(C)CCOCC1.N#CN=C=[N-]
22 | 26.9 ± 1.8 | 26.9 ± 1.8 | 26.9 ± 1.8 | 26.9 ± 1.8 | 26.9 ± 1.8 | 27 ± 1.8 |  |  | CC(C)c1ccccc1 [isopropylbenzene] + CC[N+]1(C)CCOCC1.N#CN=C=[N-]
23 | 5.36 ± 0.37 | 5.59 ± 0.38 | 5.82 ± 0.4 | 6.04 ± 0.41 | 6.26 ± 0.43 | 5.12 ± 0.35 |  |  | CCC(=O)OC [methyl propanoate] + CC[N+]1(C)CCOCC1.N#CN=C=[N-]
24 | 4.7 ± 0.32 | 4.63 ± 0.32 | 4.56 ± 0.31 | 4.49 ± 0.31 | 4.43 ± 0.3 | 4.78 ± 0.33 |  |  | CCCCCO [pentan-1-ol] + CC[N+]1(C)CCOCC1.N#CN=C=[N-]
25 | 5.26 ± 0.36 | 5.45 ± 0.37 | 5.63 ± 0.38 | 5.81 ± 0.4 | 5.98 ± 0.41 | 5.08 ± 0.35 |  |  | CCCC(C)=O [pentan-2-one] + CC[N+]1(C)CCOCC1.N#CN=C=[N-]
26 | 5.44 ± 0.37 | 5.64 ± 0.38 | 5.84 ± 0.4 | 6.03 ± 0.41 | 6.23 ± 0.42 | 5.23 ± 0.36 |  |  | CCC(=O)CC [pentan-3-one] + CC[N+]1(C)CCOCC1.N#CN=C=[N-]
27 | 1.85 ± 0.12 | 1.84 ± 0.12 | 1.84 ± 0.12 | 1.84 ± 0.12 | 1.83 ± 0.12 | 1.85 ± 0.12 |  |  | CCCO [propan-1-ol] + CC[N+]1(C)CCOCC1.N#CN=C=[N-]
28 | 29.1 ± 2 | 29.1 ± 2 | 29.1 ± 2 | 29.2 ± 2 | 29.2 ± 2 | 29.2 ± 2 |  |  | CCCc1ccccc1 [propylbenzene] + CC[N+]1(C)CCOCC1.N#CN=C=[N-]
29 | 6.59 ± 0.45 | 6.81 ± 0.46 | 7.01 ± 0.48 | 7.22 ± 0.49 | 7.43 ± 0.51 | 6.38 ± 0.43 |  |  | C=Cc1ccccc1 [styrene] + CC[N+]1(C)CCOCC1.N#CN=C=[N-]
30 | 2.36 ± 0.16 | 2.48 ± 0.17 | 2.59 ± 0.18 | 2.71 ± 0.18 | 2.82 ± 0.19 | 2.24 ± 0.15 |  |  | c1ccsc1 [thiophene] + CC[N+]1(C)CCOCC1.N#CN=C=[N-]
